Source: patent US20210205264A1, “USE OF DELTA-TOCOTRIENOL FOR TREATING CANCER” (H. LEE MOFFITT CANCER CENTER & RESEARCH INSTITUTE INC., priority 2018, published 2021)

Assays:
HT-29 = assay: Apoptosis induction in HT-29; format: cell-based, human
[1] = set-up: species or system humans; conditions: in vivo
Procedure: Two phase I dose-escalation studies were performed determining safety, pharmacokinetics, and pharmacodynamics after twice daily oral administration of d-T3 for 14 consecutive days before surgery in patients with resectable pancreatic exocrine neoplasia and in healthy individuals. […] Based on experience from clinical trials and in animal studies, a dose of 400 mg twice daily was selected for the trial. It should be noted that d-T3 concentration is several times higher in fatty tissues such as the pancreas and colon.

NCM-460 = assay: Apoptosis induction in NCM-460; format: cell-based
BID = assay: Activation of BID (tBID) by Western blotting in CCSCs; format: cell-based, human; conditions: 24-hour treatment; aspirin 5 mM, d-T3 50 μM
Procedure: FIGS. 10A, 10B, 10C, and 10D show induction of apoptosis measured by flow cytometry (FIG. 10A) and confocal microscopy (FIG. 10B) in CCSCs after treatment with vehicle, aspirin, d-T3, and aspirin+d-T3. Effect of BID inhibitor on apoptosis in CCSCs after treatment with aspirin or d-T3 (FIG. 10C). Induction oft-BID in CCSCs after treatment with vehicle, aspirin, d-T3, and aspirin+d-T3 (FIG. 10D).
d-T3 can induce selective killing of CCSCs through the BH3 interacting-domain death agonist (BID). […] It should be noted that these in vitro results are consistent with the in vivo observation of the selective induction of apoptosis in APC mutant colon crypt cells in the ApcMin/+ mice but not in the normal intestinal cells of the AOM rat CRC model or NOD/SCID mice. […] Although the proapoptotic activity of d-T3 is a consistent observation of d-T3 anticancer activity in all of the published reports, the mechanism by which d-T3 induces apoptosis is poorly understood. Apoptotic death is regulated by the death receptor (extrinsic) and mitochondrial (intrinsic) pathways. […] To obtain preliminary information regarding the mechanisms by which d-T3 induces apoptosis in CCSCs, the activation of BID was measured after 24-hour treatment with vehicle, aspirin (5 mM), d-T3 (50 μM), and aspirin combined with d-T3 in CCSCs by Western blotting.

hCAS = target: T1, hCAS (Homo sapiens, UniProt P55060); assay: hCAS protein levels in MiaPaCa-2 cells; format: cell-based
T1 construct: endogenous in cells; host or cells: MiaPaCa-2 human pancreatic cancer cells
T1 sequence (P55060 1-971): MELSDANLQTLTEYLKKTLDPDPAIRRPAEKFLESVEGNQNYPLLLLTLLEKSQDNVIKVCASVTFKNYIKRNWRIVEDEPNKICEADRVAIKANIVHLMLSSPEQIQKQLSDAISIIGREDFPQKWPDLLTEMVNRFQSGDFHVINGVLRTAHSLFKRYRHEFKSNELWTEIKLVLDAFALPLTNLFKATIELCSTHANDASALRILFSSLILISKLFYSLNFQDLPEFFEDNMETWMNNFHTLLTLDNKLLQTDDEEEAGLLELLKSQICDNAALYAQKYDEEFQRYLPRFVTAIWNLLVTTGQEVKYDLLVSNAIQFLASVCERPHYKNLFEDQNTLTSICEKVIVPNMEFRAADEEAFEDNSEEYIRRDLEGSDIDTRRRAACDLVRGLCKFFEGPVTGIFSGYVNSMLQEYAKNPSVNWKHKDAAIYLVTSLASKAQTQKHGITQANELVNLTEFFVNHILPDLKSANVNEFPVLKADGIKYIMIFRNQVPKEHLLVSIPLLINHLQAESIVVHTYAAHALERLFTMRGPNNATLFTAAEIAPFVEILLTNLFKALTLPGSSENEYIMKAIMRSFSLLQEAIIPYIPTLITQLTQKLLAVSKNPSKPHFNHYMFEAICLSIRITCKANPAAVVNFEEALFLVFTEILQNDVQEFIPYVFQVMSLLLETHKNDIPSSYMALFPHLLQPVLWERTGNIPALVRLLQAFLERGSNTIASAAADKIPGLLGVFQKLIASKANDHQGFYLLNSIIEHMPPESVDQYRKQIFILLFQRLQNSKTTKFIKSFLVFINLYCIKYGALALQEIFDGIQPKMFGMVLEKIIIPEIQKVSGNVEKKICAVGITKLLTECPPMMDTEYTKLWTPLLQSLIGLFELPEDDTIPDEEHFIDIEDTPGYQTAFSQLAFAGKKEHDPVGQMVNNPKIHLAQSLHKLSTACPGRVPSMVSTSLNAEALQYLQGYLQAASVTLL

In the case of `CC(C)=CCC/C(C)=C/CC/C(C)=C/CC[C@]1(C)CCc2cc(O)cc(C)c2O1` [d-T3, δ-tocotrienol], the apoptosis (HT-29) is reported as “significantly induced apoptosis”, the AUC ([1]; human, po) is reported as no more than 175 µM·h and the Cmax ([1]; human, po) is reported as no more than 17 µM. The half-life ([1]; human, po) was “approximately 4 hours”, the dose-limiting toxicities [1] was “no dose-limiting toxicities” and the apoptosis (NCM-460) was “no effect”. For the same molecule, the “activation of tBID” value (BID) was “significantly activated”, the “time at which decrease of hCAS levels starts” value (hCAS) was 6 h and the “time of maximum effect on hCAS levels” value (hCAS) was 24 to 48 h. For the same molecule, the hCAS levels (hCAS; d-T3 50 uM) was “decreases the hCAS levels”.
